Laboratory results taken from the NIST ThermoML archive (doi:10.1021/je0504515).
Numbers after ± are expanded uncertainties.

Experiment: xn = mol fraction of the nth substance listed
Settings: Liquid; for electrical conductivity: Radiometer CDM 210 Meterlab conductimeter with a CDC 745-9 cell

CCCC[N+]1(C)CCCC1.O=S(=O)([N-]S(=O)(=O)C(F)(F)F)C(F)(F)F + Cc1cccnc1
Settings | electrical conductivity [S/m]
295.2 K, 101 kPa, x2 = 0 | 0.28 ± 0.011

CCCC[N+]1(C)CCCC1.O=S(=O)([N-]S(=O)(=O)C(F)(F)F)C(F)(F)F + CN(C)C=O
295.2 K
Settings | electrical conductivity, 101 kPa [S/m] | viscosity, 101.3 kPa [mPa·s]
x2 = 0 | 0.28 ± 0.017 | 80 ± 6.8
x2 = 0.13 | – | 40.3 ± 8.7
x2 = 0.144 | 0.387 ± 0.023 | –
x2 = 0.24 | – | 29.6 ± 4
x2 = 0.252 | 0.495 ± 0.03 | –
x2 = 0.33 | – | 21.7 ± 3
x2 = 0.336 | 0.612 ± 0.037 | –
x2 = 0.403 | 0.74 ± 0.044 | –
x2 = 0.45 | – | 14.4 ± 2.3
x2 = 0.457 | 0.78 ± 0.047 | –
x2 = 0.519 | 0.981 ± 0.059 | –
x2 = 0.54 | – | 9.9 ± 1.7
x2 = 0.574 | 1.1 ± 0.066 | –
x2 = 0.637 | 1.32 ± 0.079 | –
x2 = 0.64 | – | 6.6 ± 1.3
x2 = 0.716 | 1.6 ± 0.096 | –
x2 = 0.74 | – | 3.7 ± 1.2
x2 = 0.773 | 1.85 ± 0.11 | –
x2 = 0.835 | 2.1 ± 0.13 | –
x2 = 0.871 | 2.17 ± 0.13 | –
x2 = 0.894 | 2.17 ± 0.13 | –
x2 = 0.91 | 2.12 ± 0.13 | –
x2 = 0.931 | 1.98 ± 0.12 | –
x2 = 0.953 | 1.7 ± 0.1 | –
x2 = 0.971 | 1.31 ± 0.079 | –
x2 = 0.981 | 1.01 ± 0.061 | –

CCCCn1cc[n+](C)c1.F[B-](F)(F)F [1-butyl-3-methylimidazolium tetrafluoroborate] + Cc1cccnc1
Settings | electrical conductivity [S/m]
295.2 K, 101 kPa, x2 = 0 | 0.378 ± 0.015

Cc1cccnc1 [3-methylpyridine] + CCCC[N+]1(C)CCCC1.O=S(=O)([N-]S(=O)(=O)C(F)(F)F)C(F)(F)F
295.2 K, 101 kPa
Settings | electrical conductivity [S/m]
x1 = 0.029 | 0.353 ± 0.06
x1 = 0.057 | 0.335 ± 0.013
x1 = 0.095 | 0.367 ± 0.015
x1 = 0.153 | 0.416 ± 0.017
x1 = 0.194 | 0.445 ± 0.018
x1 = 0.249 | 0.467 ± 0.019
x1 = 0.338 | 0.522 ± 0.021
x1 = 0.387 | 0.578 ± 0.023
x1 = 0.439 | 0.606 ± 0.024
x1 = 0.49 | 0.635 ± 0.025
x1 = 0.54 | 0.686 ± 0.027
x1 = 0.591 | 0.726 ± 0.029
x1 = 0.64 | 0.761 ± 0.03
x1 = 0.691 | 0.793 ± 0.032
x1 = 0.743 | 0.814 ± 0.033
x1 = 0.794 | 0.808 ± 0.032
x1 = 0.845 | 0.771 ± 0.031
x1 = 0.896 | 0.665 ± 0.027

Cc1cccnc1 [3-methylpyridine] + CCCCn1cc[n+](C)c1.F[B-](F)(F)F
295.2 K, 101 kPa
Settings | electrical conductivity [S/m]
x1 = 0.061 | 0.44 ± 0.018
x1 = 0.114 | 0.476 ± 0.019
x1 = 0.162 | 0.52 ± 0.021
x1 = 0.205 | 0.555 ± 0.022
x1 = 0.244 | 0.588 ± 0.024
x1 = 0.279 | 0.616 ± 0.025
x1 = 0.34 | 0.674 ± 0.027
x1 = 0.392 | 0.72 ± 0.029
x1 = 0.474 | 0.802 ± 0.032
x1 = 0.568 | 0.845 ± 0.034
x1 = 0.659 | 0.915 ± 0.037
x1 = 0.721 | 0.928 ± 0.037
x1 = 0.763 | 0.936 ± 0.037
x1 = 0.798 | 0.94 ± 0.038
x1 = 0.838 | 0.838 ± 0.034
x1 = 0.866 | 0.747 ± 0.03
x1 = 0.906 | 0.59 ± 0.024
x1 = 0.928 | 0.474 ± 0.019

CCCCCC[N+]1(C)CCCC1.O=S(=O)([N-]S(=O)(=O)C(F)(F)F)C(F)(F)F + CN(C)C=O
Settings | electrical conductivity, 101 kPa [S/m] | viscosity, 101.3 kPa [mPa·s]
293.2 K, x2 = 0.1 | 0.155 ± 0.006 | –
293.2 K, x2 = 0.5 | 0.382 ± 0.036 | –
293.2 K, x2 = 0.9 | 1.68 ± 0.068 | –
295.2 K, x2 = 0 | – | 119.8 ± 17
295.2 K, x2 = 0.1 | 0.17 ± 0.007 | –
295.2 K, x2 = 0.104 | – | 83 ± 7.2
295.2 K, x2 = 0.205 | – | 56.7 ± 2
295.2 K, x2 = 0.301 | – | 42.9 ± 1.9
295.2 K, x2 = 0.402 | – | 28.1 ± 1.3
295.2 K, x2 = 0.5 | 0.418 ± 0.017 | 19.6 ± 0.9
295.2 K, x2 = 0.599 | – | 12 ± 0.5
295.2 K, x2 = 0.7 | – | 5.5 ± 0.3
295.2 K, x2 = 0.9 | 1.74 ± 0.07 | –
298.2 K, x2 = 0.1 | 0.191 ± 0.008 | –
298.2 K, x2 = 0.5 | 0.47 ± 0.019 | –
298.2 K, x2 = 0.9 | 1.82 ± 0.073 | –
300.2 K, x2 = 0 | – | 96.8 ± 11
300.2 K, x2 = 0.104 | – | 67.5 ± 3.7
300.2 K, x2 = 0.205 | – | 47.2 ± 2.2
300.2 K, x2 = 0.301 | – | 36.4 ± 1.6
300.2 K, x2 = 0.402 | – | 24 ± 1.1
300.2 K, x2 = 0.5 | – | 17 ± 0.7
300.2 K, x2 = 0.599 | – | 10.5 ± 0.5
300.2 K, x2 = 0.7 | – | 5.1 ± 0.3
301.2 K, x2 = 0.1 | 0.211 ± 0.009 | –
301.2 K, x2 = 0.5 | 0.522 ± 0.022 | –
301.2 K, x2 = 0.9 | 1.9 ± 0.076 | –
303.2 K, x2 = 0.1 | 0.224 ± 0.009 | –
303.2 K, x2 = 0.5 | 0.557 ± 0.023 | –
303.2 K, x2 = 0.9 | 1.96 ± 0.079 | –
305.2 K, x2 = 0 | – | 79.6 ± 6.4
305.2 K, x2 = 0.1 | 0.239 ± 0.01 | –
305.2 K, x2 = 0.104 | – | 55.8 ± 2
305.2 K, x2 = 0.205 | – | 39.8 ± 1.8
305.2 K, x2 = 0.301 | – | 30.8 ± 1.4
305.2 K, x2 = 0.402 | – | 20.9 ± 0.9
305.2 K, x2 = 0.5 | 0.592 ± 0.024 | 14.7 ± 0.7
305.2 K, x2 = 0.599 | – | 9.3 ± 0.4
305.2 K, x2 = 0.7 | – | 4.7 ± 0.2
305.2 K, x2 = 0.9 | 2.02 ± 0.081 | –
308.2 K, x2 = 0.1 | 0.26 ± 0.011 | –
308.2 K, x2 = 0.5 | 0.645 ± 0.026 | –
308.2 K, x2 = 0.9 | 2.1 ± 0.084 | –
310.2 K, x2 = 0 | – | 64.8 ± 3.3
310.2 K, x2 = 0.104 | – | 45.9 ± 2.2
310.2 K, x2 = 0.205 | – | 33.6 ± 1.5
310.2 K, x2 = 0.301 | – | 26.3 ± 1.2
310.2 K, x2 = 0.402 | – | 17.9 ± 0.8
310.2 K, x2 = 0.5 | – | 13 ± 0.6
310.2 K, x2 = 0.599 | – | 8.4 ± 0.4
310.2 K, x2 = 0.7 | – | 4.3 ± 0.2
311.2 K, x2 = 0.1 | 0.28 ± 0.011 | –
311.2 K, x2 = 0.5 | 0.697 ± 0.029 | –
311.2 K, x2 = 0.9 | 2.19 ± 0.088 | –
313.2 K, x2 = 0.1 | 0.295 ± 0.012 | –
313.2 K, x2 = 0.5 | 0.732 ± 0.029 | –
313.2 K, x2 = 0.9 | 2.24 ± 0.09 | –
315.2 K, x2 = 0 | – | 54.2 ± 1.9
315.2 K, x2 = 0.1 | 0.31 ± 0.012 | –
315.2 K, x2 = 0.104 | – | 38 ± 1.8
315.2 K, x2 = 0.205 | – | 28.8 ± 1.3
315.2 K, x2 = 0.301 | – | 22.6 ± 1
315.2 K, x2 = 0.402 | – | 15.7 ± 0.7
315.2 K, x2 = 0.5 | 0.767 ± 0.031 | 11.4 ± 0.5
315.2 K, x2 = 0.599 | – | 7.5 ± 0.3
315.2 K, x2 = 0.7 | – | 3.9 ± 0.2
315.2 K, x2 = 0.9 | 2.31 ± 0.092 | –
318.2 K, x2 = 0.1 | 0.33 ± 0.013 | –
318.2 K, x2 = 0.5 | 0.819 ± 0.033 | –
318.2 K, x2 = 0.9 | 2.39 ± 0.096 | –
320.2 K, x2 = 0 | – | 45.9 ± 2.2
320.2 K, x2 = 0.104 | – | 32.4 ± 1.5
320.2 K, x2 = 0.205 | – | 24.8 ± 1.1
320.2 K, x2 = 0.301 | – | 19.5 ± 0.9
320.2 K, x2 = 0.402 | – | 13.9 ± 0.6
320.2 K, x2 = 0.5 | – | 10 ± 0.4
320.2 K, x2 = 0.599 | – | 6.8 ± 0.3
320.2 K, x2 = 0.7 | – | 3.6 ± 0.2
321.2 K, x2 = 0.1 | 0.351 ± 0.014 | –
321.2 K, x2 = 0.5 | 0.871 ± 0.036 | –
321.2 K, x2 = 0.9 | 2.48 ± 0.099 | –
323.2 K, x2 = 0.1 | 0.365 ± 0.015 | –
323.2 K, x2 = 0.5 | 0.91 ± 0.054 | –
323.2 K, x2 = 0.9 | 2.54 ± 0.1 | –
325.2 K, x2 = 0 | – | 38.9 ± 1.9
325.2 K, x2 = 0.104 | – | 27.6 ± 1.3
325.2 K, x2 = 0.205 | – | 21.8 ± 1
325.2 K, x2 = 0.301 | – | 16.9 ± 0.8
325.2 K, x2 = 0.402 | – | 12 ± 0.5
325.2 K, x2 = 0.5 | – | 9.1 ± 0.4
325.2 K, x2 = 0.599 | – | 6.2 ± 0.3
325.2 K, x2 = 0.7 | – | 3.4 ± 0.2

CCCCn1cc[n+](C)c1.F[B-](F)(F)F [1-butyl-3-methylimidazolium tetrafluoroborate] + CN(C)C=O
295.2 K, 101 kPa
Settings | electrical conductivity [S/m] | viscosity [mPa·s]
x2 = 0 | 0.375 ± 0.015 | 122.9 ± 19
x2 = 0.088 | 0.464 ± 0.019 | –
x2 = 0.14 | – | 65.6 ± 14
x2 = 0.161 | 0.551 ± 0.022 | –
x2 = 0.224 | 0.629 ± 0.025 | –
x2 = 0.23 | – | 45.4 ± 8.6
x2 = 0.324 | 0.79 ± 0.032 | –
x2 = 0.33 | – | 26.3 ± 5.7
x2 = 0.366 | 0.871 ± 0.035 | –
x2 = 0.434 | 1.03 ± 0.041 | –
x2 = 0.44 | – | 16.1 ± 3.1
x2 = 0.49 | 1.17 ± 0.047 | –
x2 = 0.53 | – | 11.2 ± 1.6
x2 = 0.535 | 1.3 ± 0.052 | –
x2 = 0.606 | 1.55 ± 0.062 | –
x2 = 0.61 | – | 9.8 ± 1.4
x2 = 0.658 | 1.72 ± 0.069 | –
x2 = 0.728 | 2.01 ± 0.08 | –
x2 = 0.73 | – | 4.7 ± 1.7
x2 = 0.793 | 2.31 ± 0.093 | –
x2 = 0.828 | 2.4 ± 0.096 | –
x2 = 0.852 | 2.44 ± 0.097 | –
x2 = 0.906 | 2.44 ± 0.097 | –
x2 = 0.957 | 1.83 ± 0.073 | –
x2 = 0.973 | 1.39 ± 0.056 | –
x2 = 0.981 | 1.13 ± 0.045 | –
